# Test results reported in patent publication US20230301300A1, “HERBICIDAL COMPOSITIONS” (SYNGENTA CROP PROTECTION AG, priority 2020, published 2023).
# Legend:
# Assay in all cases: B2 Post-Emergence Efficacy - Test 2
# Type in all cases: in vivo
# [1] = test system: Glycine max (GLXMA); settings: 15 days after application; for Herbicidal activity GLXMA: 0-100 scale; for Herbicidal activity on a 0-100 scale, GLXMA: 0=no damage, 100=total kill
# How it was run: (§1)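 Post-emergence spray, 12-day-old potted plants; IF50 formulation in water + Genapol X080 0.2% v/v. Glasshouse 24/18 or 20/16 °C, 16 h light, 65% RH, watered twice daily. Rating at 15 DAA, 0 = no damage, 100 = total kill.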
# [2] = test system: Eleisine indica (ELEIN); settings: 15 days after application, 0=no damage, 100=total kill
# How it was run: as §1
# [3] = test system: Poa annua (POAAN); settings: 15 days after application, 0-100 scale
# How it was run: as §1
# [4] = test system: Alopecurus myosuroides (ALOMY); settings: 15 days after application, 0-100 scale
# How it was run: as §1
# [5] = test system: Digitaria sanguinalis (DIGSA); settings: 15 days after application, 0=no damage, 100=total kill
# How it was run: as §1
# [6] = test system: Sorghum bicolour (SORVU); settings: 15 days after application, 0=no damage, 100=total kill
# How it was run: as §1
# [7] = test system: Sida spinosa (SIDSP); settings: 15 days after application, 0-100 scale
# How it was run: as §1
# [8] = test system: Brachiaria plantaginea (BRAPL); settings: 15 days after application, 0=no damage, 100=total kill
# How it was run: as §1
# [9] = test system: Xanthium strumarium (XANST); settings: 15 days after application, 0-100 scale
# How it was run: as §1
# [10] = test system: Avena fatua (AVEFA); settings: 15 days after application, 0-100 scale
# How it was run: as §1
# [11] = test system: Panicum miliaceum (PANMI); settings: 15 days after application, 0=no damage, 100=total kill
# How it was run: as §1
# [12] = test system: Zea mays (ZEAMX); settings: 15 days after application; for Herbicidal activity ZEAMX: 0-100 scale; for Herbicidal activity on a 0-100 scale, ZEAMX: 0=no damage, 100=total kill
# How it was run: as §1
# [13] = test system: Galium aparine (GALAP); settings: 15 days after application, 0-100 scale
# How it was run: as §1
# [14] = test system: Orysa sativa (ORYSA); settings: 15 days after application; for Herbicidal activity ORYSA: 0-100 scale; for Herbicidal activity on a 0-100 scale, ORYSA: 0=no damage, 100=total kill
# How it was run: as §1
# [15] = test system: Bidens pilosa (BIDPI); settings: 15 days after application, 0-100 scale
# How it was run: as §1
# [16] = test system: Euphorbia hetrophylla (EPHHL); settings: 15 days after application, 0-100 scale
# How it was run: as §1
# [17] = test system: Setaria faberi (SETFA); settings: 15 days after application, 0=no damage, 100=total kill
# How it was run: as §1
structure (smiles),measurement,setting,value
"Cc1nn(C)c(=O)c(-c2c(F)ccc(Cl)c2CCc2ccc(F)cc2)c1OC(=O)C(C)C [Compound 1.125, [5-[3-chloro-6-fluoro-2-[2-(4-fluorophenyl)ethyl]phenyl]-1,3-dimethyl-6-oxo-pyridazin-4-yl] 2-methylpropanoate]",Herbicidal activity GLXMA,[1]; 15 g/Ha,40
same,"Herbicidal activity on a 0-100 scale, GLXMA",[1]; 15 g/Ha,40
same,Herbicidal activity GLXMA,[1]; 30 g/Ha,70
same,"Herbicidal activity on a 0-100 scale, GLXMA",[1]; 30 g/Ha,70
same,Herbicidal activity GLXMA,[1]; 60 g/Ha,70
same,"Herbicidal activity on a 0-100 scale, GLXMA",[1]; 60 g/Ha,70
same,Herbicidal activity GLXMA,[1]; 250 g/Ha,90
same,"Herbicidal activity on a 0-100 scale, GLXMA",[1]; 250 g/Ha,90
same,Herbicidal activity GLXMA,[1]; 500 g/Ha,90
same,"Herbicidal activity on a 0-100 scale, GLXMA",[1]; 500 g/Ha,90
same,"Herbicidal activity on a 0-100 scale, ELEIN",[2]; 15 g/Ha,40
same,"Herbicidal activity on a 0-100 scale, ELEIN",[2]; 30 g/Ha,40
same,"Herbicidal activity on a 0-100 scale, ELEIN",[2]; 60 g/Ha,70
same,"Herbicidal activity on a 0-100 scale, ELEIN",[2]; 125 g/Ha,70
same,"Herbicidal activity on a 0-100 scale, ELEIN",[2]; 250 g/Ha,80
same,"Herbicidal activity on a 0-100 scale, ELEIN",[2]; 500 g/Ha,80
same,Herbicidal activity POAAN,[3]; 15 g/Ha,0
same,Herbicidal activity POAAN,[3]; 30 g/Ha,10
same,Herbicidal activity POAAN,[3]; 60 g/Ha,20
same,Herbicidal activity POAAN,[3]; 125 g/Ha,60
same,Herbicidal activity POAAN,[3]; 250 g/Ha,70
same,Herbicidal activity POAAN,[3]; 500 g/Ha,60
same,Herbicidal activity ALOMY,[4]; 15 g/Ha,10
same,Herbicidal activity ALOMY,[4]; 30 g/Ha,10
same,Herbicidal activity ALOMY,[4]; 60 g/Ha,30
same,Herbicidal activity ALOMY,[4]; 125 g/Ha,30
same,Herbicidal activity ALOMY,[4]; 250 g/Ha,60
same,Herbicidal activity ALOMY,[4]; 500 g/Ha,40
same,"Herbicidal activity on a 0-100 scale, DIGSA",[5]; 15 g/Ha,0
same,"Herbicidal activity on a 0-100 scale, DIGSA",[5]; 30 g/Ha,0
same,"Herbicidal activity on a 0-100 scale, DIGSA",[5]; 60 g/Ha,0
same,"Herbicidal activity on a 0-100 scale, DIGSA",[5]; 125 g/Ha,10
same,"Herbicidal activity on a 0-100 scale, DIGSA",[5]; 250 g/Ha,30
same,"Herbicidal activity on a 0-100 scale, DIGSA",[5]; 500 g/Ha,70
same,"Herbicidal activity on a 0-100 scale, SORVU",[6]; 15 g/Ha,0
same,"Herbicidal activity on a 0-100 scale, SORVU",[6]; 30 g/Ha,50
same,"Herbicidal activity on a 0-100 scale, SORVU",[6]; 60 g/Ha,50
same,"Herbicidal activity on a 0-100 scale, SORVU",[6]; 125 g/Ha,70
same,"Herbicidal activity on a 0-100 scale, SORVU",[6]; 250 g/Ha,80
same,"Herbicidal activity on a 0-100 scale, SORVU",[6]; 500 g/Ha,90
same,Herbicidal activity SIDSP,[7]; 60 g/Ha,80
same,Herbicidal activity SIDSP,[7]; 125 g/Ha,90
same,Herbicidal activity SIDSP,[7]; 250 g/Ha,90
same,Herbicidal activity SIDSP,[7]; 500 g/Ha,100
same,"Herbicidal activity on a 0-100 scale, BRAPL",[8]; 15 g/Ha,80
same,"Herbicidal activity on a 0-100 scale, BRAPL",[8]; 60 g/Ha,80
same,"Herbicidal activity on a 0-100 scale, BRAPL",[8]; 125 g/Ha,80
same,"Herbicidal activity on a 0-100 scale, BRAPL",[8]; 250 g/Ha,70
same,"Herbicidal activity on a 0-100 scale, BRAPL",[8]; 500 g/Ha,80
same,Herbicidal activity XANST,[9]; 30 g/Ha,90
same,Herbicidal activity XANST,[9]; 60 g/Ha,90
same,Herbicidal activity XANST,[9]; 125 g/Ha,90
same,Herbicidal activity XANST,[9]; 250 g/Ha,90
same,Herbicidal activity XANST,[9]; 500 g/Ha,100
same,Herbicidal activity AVEFA,[10]; 15 g/Ha,30
same,Herbicidal activity AVEFA,[10]; 30 g/Ha,40
same,Herbicidal activity AVEFA,[10]; 60 g/Ha,60
same,Herbicidal activity AVEFA,[10]; 125 g/Ha,70
same,Herbicidal activity AVEFA,[10]; 250 g/Ha,70
same,Herbicidal activity AVEFA,[10]; 500 g/Ha,80
same,"Herbicidal activity on a 0-100 scale, PANMI",[11]; 15 g/Ha,20
same,"Herbicidal activity on a 0-100 scale, PANMI",[11]; 30 g/Ha,30
same,"Herbicidal activity on a 0-100 scale, PANMI",[11]; 60 g/Ha,50
same,"Herbicidal activity on a 0-100 scale, PANMI",[11]; 125 g/Ha,50
same,"Herbicidal activity on a 0-100 scale, PANMI",[11]; 250 g/Ha,70
same,"Herbicidal activity on a 0-100 scale, PANMI",[11]; 500 g/Ha,80
same,Herbicidal activity ZEAMX,[12]; 15 g/Ha,0
same,"Herbicidal activity on a 0-100 scale, ZEAMX",[12]; 15 g/Ha,0
same,Herbicidal activity ZEAMX,[12]; 30 g/Ha,20
same,"Herbicidal activity on a 0-100 scale, ZEAMX",[12]; 30 g/Ha,20
same,Herbicidal activity ZEAMX,[12]; 60 g/Ha,30
same,"Herbicidal activity on a 0-100 scale, ZEAMX",[12]; 60 g/Ha,30
same,Herbicidal activity ZEAMX,[12]; 125 g/Ha,20
same,"Herbicidal activity on a 0-100 scale, ZEAMX",[12]; 125 g/Ha,20
same,Herbicidal activity ZEAMX,[12]; 250 g/Ha,40
same,"Herbicidal activity on a 0-100 scale, ZEAMX",[12]; 250 g/Ha,40
same,Herbicidal activity ZEAMX,[12]; 500 g/Ha,70
same,"Herbicidal activity on a 0-100 scale, ZEAMX",[12]; 500 g/Ha,70
same,Herbicidal activity GALAP,[13]; 30 g/Ha,20
same,Herbicidal activity GALAP,[13]; 60 g/Ha,20
same,Herbicidal activity GALAP,[13]; 125 g/Ha,30
same,Herbicidal activity GALAP,[13]; 250 g/Ha,40
same,Herbicidal activity GALAP,[13]; 500 g/Ha,70
same,Herbicidal activity ORYSA,[14]; 15 g/Ha,0
same,"Herbicidal activity on a 0-100 scale, ORYSA",[14]; 15 g/Ha,0
same,Herbicidal activity ORYSA,[14]; 30 g/Ha,0
same,"Herbicidal activity on a 0-100 scale, ORYSA",[14]; 30 g/Ha,0
same,Herbicidal activity ORYSA,[14]; 60 g/Ha,0
same,"Herbicidal activity on a 0-100 scale, ORYSA",[14]; 60 g/Ha,0
same,Herbicidal activity ORYSA,[14]; 125 g/Ha,0
same,"Herbicidal activity on a 0-100 scale, ORYSA",[14]; 125 g/Ha,0
same,Herbicidal activity ORYSA,[14]; 250 g/Ha,0
same,"Herbicidal activity on a 0-100 scale, ORYSA",[14]; 250 g/Ha,0
same,Herbicidal activity ORYSA,[14]; 500 g/Ha,0
same,"Herbicidal activity on a 0-100 scale, ORYSA",[14]; 500 g/Ha,0
same,Herbicidal activity BIDPI,[15]; 15 g/Ha,60
same,Herbicidal activity BIDPI,[15]; 30 g/Ha,60
same,Herbicidal activity BIDPI,[15]; 60 g/Ha,70
same,Herbicidal activity BIDPI,[15]; 125 g/Ha,70
same,Herbicidal activity BIDPI,[15]; 250 g/Ha,80
same,Herbicidal activity BIDPI,[15]; 500 g/Ha,100
same,Herbicidal activity EPHHL,[16]; 15 g/Ha,90
same,Herbicidal activity EPHHL,[16]; 30 g/Ha,90
same,Herbicidal activity EPHHL,[16]; 60 g/Ha,100
same,Herbicidal activity EPHHL,[16]; 125 g/Ha,100
same,Herbicidal activity EPHHL,[16]; 250 g/Ha,100
same,Herbicidal activity EPHHL,[16]; 500 g/Ha,100
same,"Herbicidal activity on a 0-100 scale, SETFA",[17]; 15 g/Ha,0
same,"Herbicidal activity on a 0-100 scale, SETFA",[17]; 30 g/Ha,10
same,"Herbicidal activity on a 0-100 scale, SETFA",[17]; 60 g/Ha,20
same,"Herbicidal activity on a 0-100 scale, SETFA",[17]; 125 g/Ha,20
same,"Herbicidal activity on a 0-100 scale, SETFA",[17]; 250 g/Ha,20
same,"Herbicidal activity on a 0-100 scale, SETFA",[17]; 500 g/Ha,100
